Measured values published in patent US7759367B2, “Pharmaceutical compositions and their uses” (Eisai R&D Management Co., Ltd., priority 2001, dated 2010).

System: AMPA receptor
Conditions: primary culture of rat embryo cerebral cortex nerve cells; Fura2-AM; 2 μM AMPA; 1 μM MK-801
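Further: neurons cultured at least 8 to 10 days atop an astrocyte layer in 96-well plates, calcium entry read as the change in Fura2 fluorescence ratio at 340/380 nm excitation.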
Protocol: Cerebral cortex was cut out from the brain of rat of gestational 18 days and treated with trypsin and DNase to disperse the cells. The cells were flown by MEM containing 10% of serum, sown in a culture bottle and astrocytes were proliferated. The astrocytes were re-dispersed by trypsin and sown in a 96-well plate. After incubation for one week, it was confirmed that the astrocytes covered all over the bottom and then the nerve cells of cerebral cortex which was dispersed by the above method were sown thereupon. After incubation for 24 hours, the medium was changed, the incubation was carried out for one week and, after that, the medium was changed to that containing 1 μM of MK-801. Nerve cells which were incubated for not shorter than 8 to 10 days were used.
Calcium influx into the cells was measured using Fura2-AM which was a calcium-sensitive fluorescent dye. It was treated in a medium containing Fura2-AM for 1 hour, incorporated into the cells, exchanged to a Tyrode solution containing 1 μM MK-801 and stimulation was carried out using 2 μM AMPA. Change in the amount of calcium flown into the cells were measured as the change in the fluorescent intensity at the exciting wave length of 340/380 nm.

**Q.** For N#Cc1ccccc1-c1cc(-c2ccccn2)cn(-c2cccc([N+](=O)[O-])c2)c1=O [Example 8, 3-(2-Cyanophenyl)-5-(2-pyridyl)-1-(3-nitrophenyl)-1,2-dihydropyridin-2-one], which IC50 is on record?
**A.** 0.1 µM

**Q.** Which IC50 does the source give for CS(=O)(=O)Nc1cccc(-n2cc(-c3ccccn3)cc(-c3ccccc3C#N)c2=O)c1 [Example 10, 3-(2-Cyanophenyl)-5-(2-pyridyl)-1-(3-methylsulfonylaminophenyl)-1,2-dihydropyridin-2-one] here?
**A.** 0.05 µM

**Q.** CNc1cccc(-n2cc(-c3ccccn3)cc(-c3ccccc3C#N)c2=O)c1 [Example 11, 3-(2-Cyanophenyl)-5-(2-pyridyl)-1-(3-methylaminophenyl)-1,2-dihydropyridin-2-one] was tested. Which IC50 did it give?
**A.** 0.06 µM

**Q.** For COC(=O)c1cccc(-n2cc(-c3ccccn3)cc(-c3ccccc3C#N)c2=O)c1 [Example 14, 3-(2-Cyanophenyl)-5-(2-pyridyl)-1-(3-methoxycarbonylphenyl)-1,2-dihydropyridin-2-one], which IC50 is on record?
**A.** 0.1 µM

**Q.** How did the IC50 turn out when CNC(=O)c1cccc(-n2cc(-c3ccccn3)cc(-c3ccccc3C#N)c2=O)c1 [Example 15, 3-(2-Cyanophenyl)-5-(2-pyridyl)-1-(3-methylaminocarbonylphenyl)-1,2-dihydropyridin-2-one] was run?
**A.** 0.05 µM

**Q.** N#Cc1ccccc1-c1cc(-c2ccccn2)cn(-c2cccc(C=O)c2)c1=O [Example 20, 3-(2-Cyanophenyl)-5-(2-pyridyl)-1-(3-formylphenyl)-1,2-dihydropyridin-2-one] was tested. Which IC50 did it give?
**A.** 0.04 µM

**Q.** How did the IC50 turn out when N#Cc1ccccc1-c1cc(-c2ccccn2)cn(-c2cccc(CO)c2)c1=O [Example 21, 3-(2-Cyanophenyl)-5-(2-pyridyl)-1-(3-hydroxymethylphenyl)-1,2-dihydropyridin-2-one] was run?
**A.** 0.03 µM

**Q.** How did the IC50 turn out when N#CCc1cccc(-n2cc(-c3ccccn3)cc(-c3ccccc3C#N)c2=O)c1 [Example 22, 3-(2-Cyanophenyl)-5-(2-pyridyl)-1-(3-cyanomethylphenyl)-1,2-dihydropyridin-2-one] was run?
**A.** 0.06 µM

**Q.** How did the IC50 turn out when CSc1ccc(-n2cc(-c3ccccn3)cc(-c3ccccc3C#N)c2=O)cc1 [Example 26, 3-(2-Cyanophenyl)-5-(2-pyridyl)-1(4-methylthiophenyl)-1,2-dihydropyridin-2-one] was run?
**A.** 0.02 µM

**Q.** Which IC50 does the source give for CS(=O)(=O)c1ccc(-n2cc(-c3ccccn3)cc(-c3ccccc3C#N)c2=O)cc1 [Example 27, 3-(2-Cyanophenyl)-5-(2-pyridyl)-1-(4-methylsulfonylphenyl)-1,2-dihydropyridin-2-one] here?
**A.** 0.05 µM

**Q.** Which IC50 does the source give for N#Cc1ccccc1-c1cc(-c2ccccn2)c(=O)n(-c2ccccc2)c1 [Example 33, 3-(2-Pyridyl)-5-(2-cyanophenyl)-1-phenyl-1,2-dihydropyridin-2-one] here?
**A.** 0.7 µM

**Q.** How did the IC50 turn out when COc1ccc(-c2cc(-c3ccccn3)cn(-c3ccccc3)c2=O)cn1 [Example 77, 3-(2-Methoxy-5-pyridyl)-5-(2-pyridyl)-1-phenyl-1,2-dihydropyridin-2-one] was run?
**A.** 0.02 µM

**Q.** Which IC50 does the source give for N#Cc1cccnc1-c1cc(-c2ccccc2)cn(-c2cccnc2)c1=O [Example 79, 3-(3-Cyano-2-pyridyl)-5-phenyl-1-(3-pyridyl)-1,2-dihydropyridin-2-one] here?
**A.** 2.6 µM

**Q.** COc1ccc(-n2cc(-c3ccccn3)cc(-c3cccnc3F)c2=O)cn1 [Example 86, 3-(2-Fluoro-3-pyridyl)-5-(2-pyridyl)-1-(2-methoxy-5-pyridyl)-1,2-dihydropyridin-2-one] was tested. Which IC50 did it give?
**A.** 1.9 µM

**Q.** How did the IC50 turn out when N#Cc1ccccc1-c1cc(-c2ccccn2)cn(-c2cccc(F)c2)c1=O [Example 92, 3-(2-Cyanophenyl)-5-(2-pyridyl)-1-(3-fluorophenyl)-1,2-dihydropyridin-2-one] was run?
**A.** 0.05 µM

**Q.** COc1cccc(-n2cc(-c3ccccn3)cc(-c3ccccc3C#N)c2=O)c1 [Example 96, 3-(2-Cyanophenyl)-5-(2-pyridyl)-1-(3-methoxyphenyl)-1,2-dihydropyridin-2-one] was tested. Which IC50 did it give?
**A.** 0.06 µM

**Q.** How did the IC50 turn out when N#Cc1ccccc1-c1cc(-c2ccccn2)cn(-c2cccc(Cl)c2)c1=O [Example 102, 3-(2-Cyanophenyl)-5-(2-pyridyl)-1-(3-chlorophenyl)-1,2-dihydropyridin-2-one] was run?
**A.** 0.02 µM

**Q.** For Cc1cccc(-n2cc(-c3ccccn3)cc(-c3ccccc3C#N)c2=O)c1 [Example 103, 3-(2-Cyanophenyl)-5-(2-pyridyl)-1-(3-tolyl)-1,2-dihydropyridin-2-one], which IC50 is on record?
**A.** 0.03 µM

**Q.** With N#Cc1ccccc1-c1cc(-c2ccccn2)cn(-c2ccsc2)c1=O [Example 105, 3-(2-Cyanophenyl)-5-(2-pyridyl)-1-(thiophen-3-yl)-1,2-dihydropyridin-2-one] as the compound, how does the IC50 read?
**A.** 0.03 µM

**Q.** How did the IC50 turn out when N#Cc1ccccc1-c1cc(-c2ccccn2)cn(-c2ccoc2)c1=O [Example 106, 3-(2-Cyanophenyl)-5-(2-pyridyl)-1-(3-furyl)-1,2-dihydropyridin-2-one] was run?
**A.** 0.07 µM

**Q.** For Cc1ccc(-n2cc(-c3ccccn3)cc(-c3ccccc3C#N)c2=O)cc1 [Example 107, 3-(2-Cyanophenyl)-5-(2-pyridyl)-1-(4-tolyl)-1,2-dihydropyridin-2-one], which IC50 is on record?
**A.** 0.07 µM

**Q.** With N#Cc1ccccc1-c1cc(-c2ccccn2)cn(-c2ccc(C(F)(F)F)cc2)c1=O [Example 108, 3-(2-Cyanophenyl)-5-(2-pyridyl)-1-(4-trifluoromethylphenyl)-1,2-dihydropyridin-2-one] as the compound, how does the IC50 read?
**A.** 0.03 µM

**Q.** With COc1ccc(-n2cc(-c3ccccn3)cc(-c3ccccc3C#N)c2=O)cn1 [Example 109, 3-(2-Cyanophenyl)-5-(2-pyridyl)-1-(2-methoxypyridin-5-yl)-1,2-dihydropyridin-2-one] as the compound, how does the IC50 read?
**A.** 0.01 µM

**Q.** How did the IC50 turn out when COc1cncc(-n2cc(-c3ccccn3)cc(-c3ccccc3C#N)c2=O)c1 [Example 118, 3-(2-Cyanophenyl)-5-(2-pyridyl)-1-(3-methoxypyridin-5-yl)-1,2-dihydropyridin-2-one] was run?
**A.** 0.1 µM

**Q.** How did the IC50 turn out when O=c1c(-c2ccc(Cl)cc2Cl)cc(-c2ccccn2)cn1-c1cccnc1 [Example 131, 3-(2,4-Dichlorophenyl)-5-(2-pyridyl)-1-(3-pyridyl)-1,2-dihydropyridin-2-one] was run?
**A.** 37 µM

Same assay, conditions: suppression of AMPA-induced calcium influx into nerve cells; Table 2

**Q.** With COc1ccc(-c2cc(-c3ccccc3C#N)c(=O)n(-c3ccccc3)c2)cn1 [Example 200, 3-(2-Cyanophenyl)-5-(2-methoxypyridin-5-yl)-phenyl-1,2-dihydropyridin-2-one] as the compound, how does the IC50 read?
**A.** 2 µM

**Q.** How did the IC50 turn out when N#Cc1ccccc1-c1cc(-c2ccccn2)cn(-c2ccc(N)cc2)c1=O [Example 215, 1-(4-Aminophenyl)-3-(2-cyanophenyl)-5-(2-pyridyl)-1,2-dihydropyridin-2-one] was run?
**A.** 0.1 µM

**Q.** With N#Cc1ccccc1-c1cc(-c2ccccn2)cn(-c2cccc(OCCCN3CCCCC3)c2)c1=O [Example 244, 3-(2-Cyanophenyl)-1-(3-piperidinopropoxyphenyl)-5-(2-pyridyl)-1,2-dihydropyridin-2-one] as the compound, how does the IC50 read?
**A.** 1.8 µM

**Q.** How did the IC50 turn out when O=c1c(-c2cccnc2F)cc(-c2ncccn2)cn1-c1cccnc1 [Example 263, 3-(2-Fluoropyridin-3-yl)-1-(3-pyridyl)-5-(2-pyrimidinyl)-1,2-dihydropyridin-2-one] was run?
**A.** 1 µM

**Q.** How did the IC50 turn out when O=c1c(-c2cccc3ccccc23)cc(-c2ccccn2)cn1-c1cccnc1 [Example 279, 3-(1-Naphthyl)-5-(2-pyridyl)-1-(3-pyridyl)-1,2-dihydropyridin-2-one] was run?
**A.** 3.71 µM

**Q.** For O=c1c(-c2cc3ccccc3n2S(=O)(=O)c2ccccc2)cc(-c2ccccn2)cn1-c1ccccc1 [Example 293, 3-(1-Benzenesulfonylindol-2-yl)-1-phenyl-5-(2-pyridyl)-1,2-dihydropyridin-2-one], which IC50 is on record?
**A.** 3.3 µM
